Measurements: patent publication US20230381133A1, “TAU AND AMYLOID PROTEIN LOWERING COMPOUNDS AND METHODS OF USE” (Qatar Foundation for Education, Science and Community …, priority 2022, published 2023)

Tests used:
[1] = system: CTE patient; experiment: Treatment of a Chronic Traumatic Encephalopathy (CTE) patient; type: in vivo; conditions: compared to a non-treated patient
Method: A therapeutically effective amount of the TA analog 2-(2-cyanophenylthio) benzoic acid is administered to a CTE patient.

[2] = system: FTLD patient; experiment: Treatment of a Frontotemporal Lobar Degeneration (FTLD) patient; type: in vivo; conditions: compared to a non-treated patient
Method: A therapeutically effective amount of the TA analog 2-(2-cyanophenylthio) benzoic acid is administered to an FTLD patient.

[3] = system: TBI patient; experiment: Treatment of a Traumatic Brain Injury (TBI) patient; type: in vivo; conditions: compared to a non-treated patient
Method: A therapeutically effective amount of the TA analog 2-(2-cyanophenylthio) benzoic acid is administered to a TBI patient.

[4] = system: bvFTLD patient; experiment: Treatment of a Behavioral Variant Frontotemporal Dementia (bvFTLD) patient; type: in vivo; conditions: compared to a non-treated patient
Method: A therapeutically effective amount of the TA analog 2-(2-cyanophenylthio) benzoic acid is administered to a bvFTLD patient.

[5] = system: PSP patient; experiment: Treatment of a Progressive Supranuclear Palsy (PSP) patient; type: in vivo; conditions: compared to a non-treated patient
Method: A therapeutically effective amount of the TA analog 2-(2-cyanophenylthio) benzoic acid is administered to a PSP patient.

[6] = system: AD patient; experiment: Treatment of an AD patient; type: in vivo; conditions: compared to a non-treated patient
Method: A therapeutically effective amount of the TA analog 2-(2-cyanophenylthio) benzoic acid is administered to an AD patient.

[7] = system: Pick disease patient; experiment: Treatment of a Pick disease patient; type: in vivo; conditions: compared to a non-treated patient
Method: A therapeutically effective amount of the TA analog 2-(2-cyanophenylthio) benzoic acid is administered to a Pick disease patient.

[8] = system: corticobasal degeneration patient; experiment: Treatment of a corticobasal degeneration patient; type: in vivo; conditions: compared to a non-treated patient
Method: A therapeutically effective amount of the TA analog 2-(2-cyanophenylthio) benzoic acid is administered to a corticobasal degeneration patient.

[9] = system: Down's Syndrome patient; experiment: Treatment of a Down's Syndrome patient; type: in vivo; conditions: compared to a non-treated patient
Method: A therapeutically effective amount of the TA analog 2-(2-cyanophenylthio) benzoic acid is administered to a Down's Syndrome patient.

[10] = biological target: SP1 (Homo sapiens, UniProt P08047); conditions: background statement; cited from earlier work
[11] = background statement; cited from earlier work

Sequence of SP1 (P08047 whole entry): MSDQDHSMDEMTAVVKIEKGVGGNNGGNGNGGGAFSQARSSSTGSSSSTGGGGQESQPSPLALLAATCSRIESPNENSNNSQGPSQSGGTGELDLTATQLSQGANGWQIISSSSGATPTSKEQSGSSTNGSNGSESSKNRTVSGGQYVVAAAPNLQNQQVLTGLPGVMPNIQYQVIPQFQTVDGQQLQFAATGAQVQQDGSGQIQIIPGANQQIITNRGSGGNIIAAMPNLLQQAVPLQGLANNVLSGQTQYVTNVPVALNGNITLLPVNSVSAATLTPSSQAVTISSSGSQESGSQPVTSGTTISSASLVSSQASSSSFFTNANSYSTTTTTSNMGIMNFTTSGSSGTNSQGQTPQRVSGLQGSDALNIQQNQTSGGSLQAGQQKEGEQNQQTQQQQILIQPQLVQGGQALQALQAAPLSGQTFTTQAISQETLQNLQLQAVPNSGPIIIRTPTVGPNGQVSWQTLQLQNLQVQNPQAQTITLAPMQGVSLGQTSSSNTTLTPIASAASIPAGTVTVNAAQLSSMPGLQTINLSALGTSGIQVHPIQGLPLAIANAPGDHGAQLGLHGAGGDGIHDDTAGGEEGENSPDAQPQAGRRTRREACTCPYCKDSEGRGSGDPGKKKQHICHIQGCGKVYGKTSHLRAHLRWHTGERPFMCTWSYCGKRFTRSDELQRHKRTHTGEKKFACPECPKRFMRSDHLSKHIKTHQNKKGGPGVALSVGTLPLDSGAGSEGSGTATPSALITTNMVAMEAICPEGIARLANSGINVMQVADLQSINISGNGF

Row | SMILES | patient's symptoms [1] | patient's symptoms [2] | patient's symptoms [3] | patient's symptoms [4] | patient's symptoms [5] | patient's symptoms [6] | patient's symptoms [7] | patient's symptoms [8] | patient's symptoms [9] | interaction with SP1 [10] | ability to cross the blood brain barrier (BBB) [11]
1 | N#Cc1ccccc1Sc1ccccc1C(=O)O [2-(2-cyanophenylthio) benzoic acid, 2-(2-cyanophenylthio)benzoic acid] | symptoms are reduced | symptoms are reduced | symptoms are reduced | symptoms are reduced | symptoms are reduced | symptoms are reduced | symptoms are reduced | symptoms are reduced | symptoms are reduced |  | 
2 | Cc1c(Cl)cccc1Nc1ccccc1C(=O)O [TA, Tolfenamic Acid] |  |  |  |  |  |  |  |  |  | interact directly with SP1 | cross the blood brain barrier
